Measured values reported in patent US5432164A, “C2,N^6 -disubstituted adenosine derivatives” (Novo Nordisk A/S, priority 1991, dated 1995).
Read-outs that look alike come from different tables or passages of the source.

Tests used:
A1 receptor = conditions: literature, in words; cited from earlier work
adenosine A2 receptor = molecular target: T1, adenosine A2 receptor (Rattus norvegicus, UniProt P30543); test: In vitro binding to adenosine A2 receptor, radioligand [3H]-CGS 21680
T1 construct: from tissue
T1 sequence (P30543 whole entry): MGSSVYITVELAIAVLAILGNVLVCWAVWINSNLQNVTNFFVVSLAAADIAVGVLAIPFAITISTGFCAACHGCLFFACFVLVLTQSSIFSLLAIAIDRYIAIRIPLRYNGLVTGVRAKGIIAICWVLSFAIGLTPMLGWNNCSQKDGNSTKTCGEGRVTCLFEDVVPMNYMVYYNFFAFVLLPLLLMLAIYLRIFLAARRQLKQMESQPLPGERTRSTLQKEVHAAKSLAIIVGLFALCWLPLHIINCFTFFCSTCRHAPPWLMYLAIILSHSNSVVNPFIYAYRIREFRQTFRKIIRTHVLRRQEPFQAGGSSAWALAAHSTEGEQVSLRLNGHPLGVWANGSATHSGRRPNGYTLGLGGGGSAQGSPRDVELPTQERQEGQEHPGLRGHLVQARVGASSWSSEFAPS
Source text: (§1) Evaluation of in vitro binding to adenosine A1 and A2 receptors.

mice = test: DMCM induced seizures in mice, i.p. 30 min (protection against clonic convulsions); assay type: in vivo, male NMRI mice; conditions: Mus musculus, ip, 0.5 h, read-out: DMCM-ind. seizures (ED50, mg/kg)
Procedure: DMCM INDUCED SEIZURES IN MICE, I.P.30 min.
DMCM, 15 mg/kg, i.p., clonic convulsions
DMCM is an inverse agonist at the benzodiazepine receptor, presumably producing seizures by decreasing the potency of inhibition of the GABA receptor/benzodiazepine receptor/chloride ionophore complex (1).
15 mg/kg of DMCM dissolved in 0.02N HCl (1 mg/ml) is administered i.p. in a volume of 300 μl to male NMRI mice weighing 20±2 g. This induces two different responses: a) some animals manifest a brief loss of righting reflexes or take up an upright position in which they have a mild short clonus of the upper extremities, b) other animals manifest intense clonic and tonic convulsions of all extremities often followed by death. DMCM is administered 30 min. after an intraperitoneal injection of a test compound. The latency time for the presence of intense clonic and tonic convulsions and death is noted until 15 min. after administration of DMCM. At least 5 doses of each test compound are tested with 8 mice per dose.
This method is described in more detail in Eur. J. Pharmacol. 94, 117-124, 1983.

adenosine A1 receptor = molecular target: T2, adenosine A1 receptor (Rattus norvegicus, UniProt P25099); test: In vitro binding to adenosine A1 receptor, radioligand [3H]-L-PIA; conditions: for Ki: [3H]-L-PIA radioligand; for Ratio A2/A1: ratio of Ki A2/A1
T2 construct: from tissue
T2 sequence (P25099 1-326): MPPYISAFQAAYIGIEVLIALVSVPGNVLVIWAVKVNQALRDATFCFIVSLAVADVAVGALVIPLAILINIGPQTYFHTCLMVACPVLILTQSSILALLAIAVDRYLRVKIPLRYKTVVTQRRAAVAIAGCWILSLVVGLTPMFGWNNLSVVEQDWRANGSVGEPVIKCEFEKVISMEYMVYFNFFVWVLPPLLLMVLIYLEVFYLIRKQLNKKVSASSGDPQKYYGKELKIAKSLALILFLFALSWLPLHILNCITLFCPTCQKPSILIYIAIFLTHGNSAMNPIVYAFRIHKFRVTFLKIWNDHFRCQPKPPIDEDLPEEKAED
Source text: as §1

[1] = [3H]-CGS 21680 radioligand, read-out: A2 Receptor Binding (Ki)
[2] = mice, test compound i.p. 30 min before DMCM 15 mg/kg i.p., dose protecting 50% against clonic convulsions

| Ki (adenosine A1 receptor) [µM] | Ratio A2/A1 (adenosine A1 receptor) | Ki (adenosine A2 receptor; [1]) [µM] | Structure (SMILES) | selectivity for the A1 receptor over the A2 receptor (A1 receptor) | Ki (adenosine A2 receptor) [µM] | ED50 (mice) [mg/kg] | ED50 (mice; [2]) [mg/kg] |
| --- | --- | --- | --- | --- | --- | --- | --- |
| 0.004 | 173 | 0.691 | OC[C@H]1O[C@@H](n2cnc3c(NN4CCCCC4)nc(Cl)nc32)[C@H](O)[C@@H]1O [Example 5, 2-Chloro-N-(1-piperidinyl)adenosine] |  |  |  | 0.1 |
| 0.004 | 289 | 1.14 | OC[C@H]1O[C@@H](n2cnc3c(NN4CCCCC4)nc(F)nc32)[C@H](O)[C@@H]1O [Example 9, 2-Fluoro-N-(1-piperidinyl)adenosine] |  |  |  | 0.7 |
|  | 857 | 1.2 | OC[C@H]1O[C@@H](n2cnc3c(NN4CCC(Oc5ccccc5)CC4)nc(Cl)nc32)[C@H](O)[C@@H]1O [Example 17, 2-Chloro-N-[4-phenoxy-1-piperidinyl]adenosine] |  |  |  | 0.9 |

The next lines start with the compound.

| Structure (SMILES) | Ki (adenosine A1 receptor) [µM] | Ratio A2/A1 (adenosine A1 receptor) | Ki (adenosine A2 receptor; [1]) [µM] | selectivity for the A1 receptor over the A2 receptor (A1 receptor) | Ki (adenosine A2 receptor) [µM] | ED50 (mice) [mg/kg] | ED50 (mice; [2]) [mg/kg] |
| --- | --- | --- | --- | --- | --- | --- | --- |
| OC[C@H]1O[C@@H](n2cnc3c(NC4CCCC4)nc(Cl)nc32)[C@H](O)[C@@H]1O [2-chloro-N-cyclopentyladenosine] |  |  |  | most selective for the A1 receptor over the A2 receptor |  |  |  |
| OC[C@H]1O[C@@H](n2cnc3c(NC4CCCC4)ncnc32)[C@H](O)[C@@H]1O [CPA, N-(cyclopentyl)adenosine, reference compound] |  |  |  |  | 0.173 | 0.2 |  |
| OC[C@H]1O[C@@H](n2cnc3c(NN4CCCC(Oc5ccccc5)C4)nc(Cl)nc32)[C@H](O)[C@@H]1O (stereo partly shown) [Example 16, 2-Chloro-N-(3-phenoxy-1-piperidinyl)adenosine] | 0.011 | 158 | 1.73 |  |  |  | 1 |
| CC(Cc1ccccc1)Nc1ncnc2c1ncn2[C@@H]1O[C@H](CO)[C@@H](O)[C@H]1O (stereo partly drawn) [L-PIA, N-(1-phenyl-2-propyl)adenosine, reference compound] |  |  |  |  |  | 0.1 |  |
